Holding throughout (type): functional
Assay [1] has as its system Mus musculus. Nature of the assay: Analgesic activity in Mus musculus Swiss albino (mouse) assessed as increase in reaction time of paw licking or jump response at 50 mg/kg, po after 30 min by hot plate method. A general note: In hot-plate and tail-flick tests a longer latency is read as antinociception.
In assay [2] the test system is Mus musculus. Put plainly: Analgesic activity in Mus musculus Swiss albino (mouse) assessed as increase in reaction time of paw licking or jump response at 50 mg/kg, po after 60 min by hot plate method.
The subject of assay [3] is Aspergillus niger. Put plainly: Antimicrobial activity against at Aspergillus niger at 25 ug/ml by cup-plate method. The note with it: read-out: IZ.
Assay [4] deals with Rattus norvegicus. Nature of the assay: Anti-inflammatory activity in Rattus norvegicus Wistar albino (rat) assessed as protection against carrageenan-induced paw edema at 50 mg/kg after 30 min. A general note: In the carrageenan paw model, swelling and tenderness develop within hours.
Assay [5] deals with Bacillus subtilis. Put plainly: Antimicrobial activity against at Bacillus subtilis at 25 ug/ml by cup plate method. The note with it: read-out: IZ.
Assay [6] relates to Aspergillus niger. Put plainly: Antimicrobial activity against at Aspergillus niger at 100 ug/ml by cup-plate method. The note with it: read-out: IZ.
Assay [7] deals with Escherichia coli. Nature of the assay: Antimicrobial activity against at Escherichia coli at 100 ug/ml by cup-plate method. The note with it: read-out: IZ.
The subject of assay [8] is Aspergillus niger. Put plainly: Antimicrobial activity against at Aspergillus niger at 50 ug/ml by cup-plate method. The note with it: read-out: IZ.
The subject of assay [9] is Bacillus subtilis. Nature of the assay: Antimicrobial activity against at Bacillus subtilis at 50 ug/ml by cup plate method. The note with it: read-out: IZ.
Assay [10] deals with Rattus norvegicus. Nature of the assay: Anti-inflammatory activity in Rattus norvegicus Wistar albino (rat) assessed as protection against carrageenan-induced paw edema at 50 mg/kg after 2 hr.
Assay [11] relates to Penicillium chrysogenum. Nature of the assay: Antimicrobial activity against at Penicillium chrysogenum at 100 ug/ml by cup-plate method. The note with it: read-out: IZ.
Assay [12] has as its system Rattus norvegicus. Put plainly: Anti-inflammatory activity in Rattus norvegicus Wistar albino (rat) assessed as protection against carrageenan-induced paw edema at 50 mg/kg after 3 hr.
Assay [13] relates to Bacillus subtilis. Put plainly: Antimicrobial activity against at Bacillus subtilis at 100 ug/ml by cup plate method. The note with it: read-out: IZ.
Assay [14] deals with Mus musculus. Nature of the assay: Analgesic activity in Mus musculus Swiss albino (mouse) assessed as increase in reaction time of paw licking or jump response at 50 mg/kg, po after 90 min by hot plate method.
The subject of assay [15] is Rattus norvegicus. Put plainly: Anti-inflammatory activity in Rattus norvegicus Wistar albino (rat) assessed as protection against carrageenan-induced paw edema at 50 mg/kg after 90 min.
The subject of assay [16] is Penicillium chrysogenum. Nature of the assay: Antimicrobial activity against at Penicillium chrysogenum at 50 ug/ml by cup-plate method. The note with it: read-out: IZ.
The test system of assay [17] is Escherichia coli. Nature of the assay: Antimicrobial activity against at Escherichia coli at 50 ug/ml by cup-plate method. The note with it: read-out: IZ.
Assay [18] relates to Rattus norvegicus. Put plainly: Anti-inflammatory activity in Rattus norvegicus Wistar albino (rat) assessed as protection against carrageenan-induced paw edema at 50 mg/kg after 60 min.
Assay [19] concerns Penicillium chrysogenum. Put plainly: Antimicrobial activity against at Penicillium chrysogenum at 25 ug/ml by cup-plate method. The note with it: read-out: IZ.
The test system of assay [20] is Escherichia coli. Put plainly: Antimicrobial activity against at Escherichia coli at 25 ug/ml by cup-plate method. The note with it: read-out: IZ.

Structures are written as SMILES.

`O=C1c2ccccc2-c2noc(-c3cccc([N+](=O)[O-])c3)c21`: the Activity in [1] amounted to 5.44%; in assay [2], 10.38%; in assay [4], 2.02%; in assay [10], 7.44%; in [12], 6.44%; in [14], 14.2%. Further, the results for the Activity in [15] and in assay [18] were 5.52% and 3.99%, respectively. The zone of inhibition at 25 µg/mL was 4.25 mm in assay [3] and 4 mm in [5]. Further, the zone of inhibition at 100 µg/mL in assay [6] is 17 mm; in [7], 17 mm; in assay [11], 13.5 mm; in [13] it was 13.5 mm. Further, the zone of inhibition at 50 µg/mL in [8] came to 13.2 mm; in assay [9], 7 mm; in assay [16] it was 7 mm; in assay [17], 13.2 mm.
With `COc1ccc(-c2onc3c2C(=O)c2ccccc2-3)cc1`, the Activity in [1] came out at 3.06%; in [2] it was 5.13%; in assay [4], 7.71%; in assay [10], 12.32%; in assay [12], 9.21%; in assay [14], 8.04%. Further, the Activity is recorded as 16.38% in assay [15] and 12.21% in assay [18]. Moreover, the zone of inhibition at 25 µg/mL was found to be 5.35 mm in assay [19], 7.25 mm in assay [3] and 5.5 mm in assay [20]. The zone of inhibition at 100 µg/mL in [6] turned out to be 17 mm; in [7], 20.2 mm; in assay [11], 19.6 mm; in assay [13], 14.8 mm. Moreover, the figures for the zone of inhibition at 50 µg/mL in assay [8], in assay [9] and in [16] were 11.7 mm, 5.5 mm and 12.7 mm, respectively.
For the molecule `CC1(C)S[C@@H]2[C@H](NC(=O)[C@H](N)c3ccccc3)C(=O)N2[C@H]1C(=O)O` [AMPICILLIN], the zone of inhibition at 25 µg/mL in [5] worked out at 9.1 mm; in [20], 11.2 mm. Further, the results for the zone of inhibition at 100 µg/mL in [7] and in [13] were 32.7 mm and 21.1 mm, respectively. In addition, the figures for the zone of inhibition at 50 µg/mL in assay [9] and in assay [17] were 12.1 mm and 20.4 mm, respectively.
Turning to `CN(C)c1ccc(-c2onc3c2C(=O)c2ccccc2-3)cc1`, the Activity in assay [1] was found to be 5.02%; in [2], 5.65%; in assay [4], 7.11%; in assay [10], 19.21%; in assay [12] it was 20.1%; in [14] it was 9.93%. The Activity in [15] is 14.23%; in [18], 8.45%. In addition, the zone of inhibition at 25 µg/mL turned out to be 4 mm in [19] and 5.5 mm in [3]. The zone of inhibition at 100 µg/mL in assay [6] was determined as 13 mm; in [7], 17.2 mm; in assay [11], 12.2 mm; in [13], 12 mm. For the same molecule, the zone of inhibition at 50 µg/mL was 7.5 mm in [8], 4.75 mm in [9], 7.25 mm in [16] and 12 mm in [17].
Consider `COc1ccc(-c2onc3c2C(=O)c2ccccc2-3)cc1OC`, for which the Activity in assay [1] amounted to 12.61%; in [2] it was 19.02%; in assay [4], 6.21%; in assay [10], 6.52%; in assay [12], 7.32%; in [14], 23.54%. Further, the figures for the Activity in assay [15] and in assay [18] were 8.12% and 7.21%, respectively. The zone of inhibition at 25 µg/mL amounted to 4.75 mm in assay [19], 6.5 mm in assay [3] and 7.25 mm in assay [20]. Besides, the zone of inhibition at 100 µg/mL in assay [6] was 17.8 mm; in assay [7] it was 24.5 mm; in assay [11] it was 13.8 mm; in [13], 19.7 mm. In addition, the zone of inhibition at 50 µg/mL in [8] was determined as 13.8 mm; in assay [9] it was 12.8 mm; in assay [16], 5.25 mm; in assay [17], 11 mm.
On to `COc1cc(-c2onc3c2C(=O)c2ccccc2-3)cc(OC)c1OC`, for which the Activity is recorded as 4.48% in assay [1]; 9.75% in assay [2]; 17.21% in assay [4]; 29.15% in assay [10]; 26.32% in assay [12]; 12.54% in assay [14]. The Activity in assay [15] turned out to be 29.14%; in [18] it was 22.38%. The zone of inhibition at 25 µg/mL in assay [19] stood at 5.5 mm; in assay [3] it was 6.49 mm; in assay [5], 5.25 mm. The zone of inhibition at 100 µg/mL came to 19.2 mm in [6], 27.8 mm in assay [7], 19 mm in assay [11] and 18.8 mm in assay [13]. The zone of inhibition at 50 µg/mL in assay [8] worked out at 11.2 mm; in assay [9], 11.5 mm; in [16] it was 9.25 mm; in [17] it was 16.5 mm.
Regarding `OC(Cn1cncn1)(Cn1cncn1)c1ccc(F)cc1F` [FLUCONAZOLE], the figures for the zone of inhibition at 25 µg/mL in assay [19] and in [3] were 7.32 mm and 11.9 mm, respectively. Moreover, the figures for the zone of inhibition at 100 µg/mL in assay [6] and in assay [11] were 31.8 mm and 21.2 mm, respectively. In addition, the zone of inhibition at 50 µg/mL in assay [8] was 21.7 mm; in assay [16], 14.2 mm.
With `COc1ccc2c(c1)c(CC(=O)O)c(C)n2C(=O)c1ccc(Cl)cc1` [INDOMETHACIN], the Activity in assay [4] came out at 28.56%; in assay [10] it was 20.15%; in assay [12] it was 20.22%; in [15], 21.12%; in assay [18], 23.22%.
For `O=C1c2ccccc2-c2noc(-c3ccc(O)cc3)c21`, the Activity in [1] came out at 16.52%; in [2], 23.74%; in assay [4] it was 31.16%; in assay [10], 36.33%; in assay [12], 33.45%; in assay [14], 27.87%. Also, the figures for the Activity in assay [15] and in assay [18] were 42.6% and 41.46%, respectively. Moreover, the figures for the zone of inhibition at 25 µg/mL in assay [19], in assay [3] and in [20] were 4.35 mm, 6 mm and 4.75 mm, respectively. Further, the zone of inhibition at 100 µg/mL was 21 mm in [6], 13.8 mm in [7], 14 mm in [11] and 17.5 mm in [13]. The zone of inhibition at 50 µg/mL in assay [8] is 13 mm; in [9] it was 11.2 mm; in assay [16], 6 mm; in assay [17] it was 5.25 mm.

Values taken from ChEMBL document CHEMBL3046232, “Synthesis, pharmacological evaluation and molecular docking studies of indanone derivatives” (2012).
